From patent publication US20080210174A1, “Increasing the Protein Concentration of Animal Organisms” (BASF AKTIENGESELLSCHAFT, priority 2004, published 2008)

How the values were obtained:
malate dehydrogenase = malate dehydrogenase from Mucor circinelloides; cited from earlier work
[1] = system: mice (type CD-1M (ICR) BR); assay: Feeding experiment in mice: whole body crude protein, crude fat, P/F quotient, feed intake, weight gain; format: in vivo; settings: 21 days; for Body fat / Body protein / P/F quotient: mice
Description: 1. Determination of Whole Body Crude Protein • 1) Method for determining the content of crude protein in mice from the nitrogen content, modified according to Kjeldahl (Kjeldahl, J.: Z. anal. Chem. 22, 366-382. 1883). • 2) Principle • The experimental animals were slaughtered and after removing the gastrointestinal tract, the weight of the animals was determined by weighing. The experimental animals were then shock-frozen in liquid nitrogen and homogenized. The resultant samples were subjected to wet digestion. The acidic digest was made alkaline with sodium hydroxide solution. The ammonia released was removed by distillation and collected in a defined amount of sulfuric acid, the excess of which was titrated with sodium hydroxide solution. • 3) Reagents • 3.1) Potassium sulfate, analytical grade • 3.2) Catalyst: copper(II) oxide, CuO, analytical grade, or crystalline copper sulfate, CuSO4.5H2O, analytical grade, or mercury, or mercury oxide, HgO, analytical grade. • 3.3) Sulfuric acid; analytical grade, D 1.84 • 3.4) Pumice stone, granulated, washed with hydrochloric acid and ignited • 3.5) Zinc, analytical grade, granulated • 3.6) Sulfuric acid, 0.1 N; • 3.7) Sulfuric acid, 0.5 N • 3.8) Methyl red indicator: 300 mg of methyl red are dissolved in 100 ml of ethanol, from 94 to 96% strength (VN). • 3.9) Sodium hydroxide solution, analytical grade, 40% strength (WN) • 3.10) Sodium sulfide solution, analytical grade, saturated • 3.11) Sodium thiosulfate solution, 8% strength (WN), Na2S2O3.5H2O, analytical grade • 3.12) Sodium hydroxide solution, 0.1 N; • 3.13) Sodium hydroxide solution, 0.25 N • 4) Apparatus • Digestion apparatus and distillation apparatus according to Kjeldahl (see above); • 5) Digestion • 1 g of the sample was weighed out accurately to 1 mg and placed in the flask of the digestion apparatus. 10 g of potassium sulfate […], a suitable amount of the catalyst (3.2) (from 0.3 to 0.4 g of copper oxide or from 0.9 to 1.2 g of copper sulfate or one drop of mercury or from 0.6 to 0.7 g of mercury oxide), 25 ml of sulfuric acid (3.3) and a few grains of pumice (3.4) were added and the flask contents were mixed. The flask was first heated moderately, then, with shaking from time to time, heated up to carbonization of the substance and disappearance of the foam, and finally intensively up to the uniform boiling of the liquid. Superheating of the flask walls and deposition of organic parts onto the flask walls was avoided. As soon as the solution was clear and colorless (light green when a copper-containing catalyst is used), this was kept boiling for a further 1 hour; thereafter it was allowed to cool. • 6) Distillation • With continuous swirling, from 250 to 356 ml of water were added with care, in which case the sulfates should dissolve completely. The mixture was allowed to cool; then some zinc granules (3.5) were added. Between 10 ml and 25 ml of sulfuric acid (3.6) or (3.7), depending on the expected nitrogen content, and a few drops of methyl red indicator (3.8) were added to the distillation apparatus collection flask. The flask was connected to the condenser of the distillation apparatus and its outermost end was lowered at least 1 cm deep into the liquid of the collection flask. 100 ml of sodium hydroxide solution (3.9) were slowly charged via the stopcock funnel into the distillation flask. When a mercury catalyst is used, in addition, 10 ml of sodium sulfide solution (3.10) or 25 ml of sodium thiosulfate solution (3.11) were added to the distillation flask. The flask is heated in such a manner that, in 30 min, about 150 ml of the liquid had distilled off. After the expiry of this time, the neutral reaction of the overhead distillate was controlled using litmus paper. If the reaction was alkaline, the distillation was continued. […] During the distillation operation, the contents of the collection flask were swirled from time to time and its color was observed. […]

ATP:citrate lyase = ATP:citrate lyase from Mucor circinelloides; cited from earlier work
Mucor circinelloides = settings: fungus Mucor circinelloides; cited from earlier work
[2] = system: conversion of carbohydrates to fatty acids; settings: rats on a low-fat, carbohydrate-rich diet; cited from earlier work
malate enzyme = malate enzyme from Mucor circinelloides; cited from earlier work
[3] = molecular target: T1, human cytosol malate enzyme (Homo sapiens, UniProt P48163); settings: cited from earlier work
T1 sequence (P48163 1-572): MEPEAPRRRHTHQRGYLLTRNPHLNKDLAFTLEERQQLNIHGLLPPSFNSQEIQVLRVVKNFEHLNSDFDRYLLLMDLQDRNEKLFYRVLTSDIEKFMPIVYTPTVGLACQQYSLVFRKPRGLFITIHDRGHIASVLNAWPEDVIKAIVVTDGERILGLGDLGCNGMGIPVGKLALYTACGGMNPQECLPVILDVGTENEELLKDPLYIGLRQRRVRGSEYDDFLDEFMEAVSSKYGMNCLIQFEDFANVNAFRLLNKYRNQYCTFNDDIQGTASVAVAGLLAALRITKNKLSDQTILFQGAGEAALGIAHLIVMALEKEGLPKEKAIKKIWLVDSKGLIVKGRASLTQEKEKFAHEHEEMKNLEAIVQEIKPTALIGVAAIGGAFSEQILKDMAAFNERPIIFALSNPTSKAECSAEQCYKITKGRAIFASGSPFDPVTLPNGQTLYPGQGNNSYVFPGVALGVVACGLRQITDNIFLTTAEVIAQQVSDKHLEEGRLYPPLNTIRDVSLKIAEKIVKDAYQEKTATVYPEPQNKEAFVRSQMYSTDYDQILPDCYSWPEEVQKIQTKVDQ

[4] = molecular target: human mitochondrial malate enzyme (Homo sapiens, UniProt P23368); settings: cited from earlier work
[5] = animals fed with tartronic acid (0.25% and 0.75% of feed) vs control

Sequence of human mitochondrial malate enzyme (P23368 19-584): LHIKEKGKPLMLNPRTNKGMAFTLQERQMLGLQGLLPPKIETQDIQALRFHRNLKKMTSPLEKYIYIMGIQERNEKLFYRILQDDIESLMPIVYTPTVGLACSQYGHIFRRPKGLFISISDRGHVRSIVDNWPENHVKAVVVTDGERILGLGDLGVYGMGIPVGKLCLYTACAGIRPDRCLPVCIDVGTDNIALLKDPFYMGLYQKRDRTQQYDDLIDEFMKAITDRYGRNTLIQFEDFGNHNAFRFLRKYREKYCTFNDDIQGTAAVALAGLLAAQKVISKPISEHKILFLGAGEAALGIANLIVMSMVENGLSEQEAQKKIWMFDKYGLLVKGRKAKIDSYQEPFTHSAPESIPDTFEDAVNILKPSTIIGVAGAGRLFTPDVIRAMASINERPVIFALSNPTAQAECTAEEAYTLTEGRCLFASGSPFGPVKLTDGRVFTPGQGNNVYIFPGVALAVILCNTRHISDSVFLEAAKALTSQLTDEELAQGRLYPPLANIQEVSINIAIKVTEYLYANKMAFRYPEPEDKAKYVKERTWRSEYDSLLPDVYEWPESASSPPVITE

O=C(O)C(O)C(=O)O [Tartronic acid, tartronic acid]
inhibitory activity on enzyme (malate dehydrogenase): direct inhibitory activity
Body fat ([1]; 0.25% by weight of the feed): 20.25 % by weight of body weight
Body protein ([1]; 0.25% by weight of the feed): 65.93 % by weight of body weight
P/F quotient ([1]; 0.25% by weight of the feed): 3.53
Body fat ([1]; 0.75% by weight of the feed): 20.65 % by weight of body weight
Body protein ([1]; 0.75% by weight of the feed): 66.04 % by weight of body weight
P/F quotient ([1]; 0.75% by weight of the feed): 3.28
P/F quotient, change [1, 5]: increase in the P/F quotient
PPTW (percentage protein of total weight), change [1, 5]: increase in the PPTW
inhibitory activity on enzyme (ATP:citrate lyase): direct inhibitory activity
in vivo inhibitory activity, effect on lipid metabolism (Mucor circinelloides): not sufficient to have a detectable effect on lipid metabolism
effect on conversion of carbohydrates to fatty acids [2]: inhibits the conversion of carbohydrates to fatty acids
inhibitory activity on enzyme (malate enzyme): direct inhibitory activity
inhibitory activity on enzyme [3]: direct inhibitory activity
inhibitory activity on enzyme [4]: direct inhibitory activity
